Source: patent publication US20240102060A1, “ENZYMES AND METHODS FOR FERMENTATIVE PRODUCTION OF MONOTERPENE ESTERS” (ISOBIONICS B.V., priority 2020, published 2024)
Numbering of substitutions follows the chain as printed.

B1: AAT9-1-c: alcohol acyl transferase (AAT) from Citrus bergamia, variant AAT9-1-c, amino acid sequence SEQ ID NO: 2 (protein, listed as Citrus bergamia)
chain: MKIDVETISREMIKPSTPTPNHLRHYQFSHLDQIGPPFYISLLYFYHLDDDKLVSNNRHLFSDSLKSSLSNVLTKYYPLAGRIKNNYVDCNDEGVFFSEAKVSCQLSEIINEPEFPSEFKKLLPFDQEKDVVSFDSLAIAIQVNMFNCGNVAVAVMISHKIADGSSLSTFTKNWAAAARGESENVFPEFVAARLFPPEDAGGGSGTSFDPRPKKVVLKKFLFEGSKITALRDKYGFDNRIYPTRVEALSAFLWSRLAASNRIKVSSERPCMLIHAVNLRKRVEPQLPADSFGNLFAFAVTVLDENDDDGMVNKFRDAISKIDKDYLKAKKVEHSELIDLGITNGEKFGGGELGYCIISSLCKFPVYEADFGLGKPTWVAWGCFPYKNVIHFIDAKSGDGIEVWVHLEKEVMAKFENDQELLAYVST
B2: AAT9-1-a: inactive variant of the alcohol acyl transferase from Citrus bergamia, Tryptophan at position 371, SEQ ID NO: 6 (protein, listed as Citrus bergamia)
chain: B1 chain with G371W
B3: AAT9-2-a: inactive variant of the alcohol acyl transferase from Citrus bergamia, SEQ ID NO: 8 (protein, listed as Citrus bergamia)
chain: MKISVETISREMIKPSTPTPNHLRHYHFSYLDQTAPPLYMSLLYFYHLDDHKLVSNNNHLFINSLKSSLSNVLTKYYPLAGRVKNNYVDCNDEGVVFSEAKVSCLLSEIINELPSEFNKLHPFDQEKDVVSINGLPIAIQVNMFNCGSVAIAVMIFHKIADAASLITFTKNWAAAARGGSGNVFPEFVAARLFPPQDAGGSSGVSVDPRPKKIVLKKFLFEGPKITALRDKYGLDNGIYPTRVEALSAFIWSRLAASTRIKISPERPYMLVHLVNLRKRMEPPLPDDSFGNIIGAAVTVLEENDDDDRMVNKFRDAICKVDKDYLKVMKLEHSELTDLVITNGEIVDRGELGYCFFSSLCKFPVYEADFGLGKPMWVAWGRLPYKNIIHLIDTKSGDGIEAWIHLEEEVMAKFGNDQELLAYVSP
B4: SEQ ID NO: 3: alcohol acyl transferase (AAT) from Lavandula angustifolia, internal designation 10056 (protein, listed as Lavandula angustifolia)
chain: MEIETRVISTEIIKPSSPTPKFLQNHRLSFLDQIAPPIFMPVVYFYESNTKFPNSQQSNHLKNSLSQVLTKFYPLAGRLVGNLYVDCDDGGVPFVEAEANFDLSQIITNPNPRNMSKFLPYNESHDFCMAVQATYFRCGGVAVGLLVSHKIADALSFFLFANFWSAVARSGEGGGGQPPKFDVATYFPPRDISGYEPSTGIMKEEITTRIFTFSDKKIAVLREKYAATGSGGDGDLPQRRPTRVEALSAFIWTRFINSTGVKSDPNKIYTVMHAVNLRTRTDPPLTEYHFGNISRLAIANPDVGESGVTDGGVELMQRVREAIKAVDGAYVADLKEGEKHLSLMREKMAQANKGELVSFSFTSLCRFPLYDADFGWGKPVWVGSAGFAYKNLVTFMDTRDGDGIEAWIHSRREDMEKFEVDLELQDFLSHDKSSLISLV
B5: SEQ ID NO: 4: alcohol acyl transferase (AAT) from Lavandula angustifolia, internal designation 1461 (protein, listed as Lavandula angustifolia)
chain: MEIEILSKQSIKPSSLTPSQLRDFKLSFIDERIPPFYIPLILYYTFDEQTNVNQSEMSDRLKTSLADALAKFYPLAGRMKGQISVDCNDQGVLCTEAIANANVLDIVSSPDPLVLDKLIPYVTNGFVSSAQEQLAIQITSFNCGGISIGICFSHRIADASTLSSFIKYWAATACRDRISAVSPVFNSATLFPPRNTPDFTPNPTSPSVRPLAPNLVIKRFLFSSQSINAMKLEVSRNSRILNPTRVEVVTALIWNRCVVAKGIERSNRSVAYHTLNLRGKIPALSERSFGNLFQMIKVESEAETTWILLVEKLRSAFEGFDVKKQLLGEKGFENAKENFMEISQLLRAGNVEVFRFSSYCRLAVYEADFGWGKPVWVSNSCYRNKNCVFLFDSVGSRGGIEAWIVMSERDMERLEQDLEFKRFASF

Tested on: not listed separately
Test: Conversion of linalool to linalyl acetate by E. coli BL21-RIL expressing Citrus bergamia AAT variants, GC FID
Assay type: cell-based
Details: dodecane with 5 mM linalool (racemic), overnight at 18° C.
Protocol: To this end, the three different variants, and an empty pACYC-DUET-1, were introduced into chemical competent E. coli BL21-RIL (Stratagene), by heat shock transformation, and selected on LB-agar with 1% glucose and […] chloramphenicol. Transformants were transferred to 5 ml LB liquid medium with 1% glucose and 50 ug/ml chloramphenicol and grown overnight at 37° C. and 250 rpm.
(§1) 200 μL of those cultures was transferred to 20 mL of LB medium with the appropriate antibiotic in a 100 mL Erlenmeyer flask, and incubated at 37° C., 250 rpm until the A600 was 0.4 to 0.6. […] The next day, dodecane layer was recovered by centrifugation (10 min at 8000×g), diluted in ethyl acetate and analysed by GC FID.

| Molecule | conversion of linalool to linalyl acetate |
| --- | --- |
| B1 | linalool was converted to linalyl acetate |
| B2 | could not be observed |
| B3 | could not be observed |

Tested on: AAT9-1-c (SEQ ID NO: 2)
Test: Monoterpene and sesquiterpene alcohols tested in the presence of E. coli cells expressing AAT9-1-c
Assay type: cell-based
Details: E. coli cells expressing AAT9-1-c versus empty pACYCDUET-1
Protocol: as §1

| Molecule | conversion of the alcohol to its corresponding ester by AAT9-1-c |
| --- | --- |
| CC1=CC[C@@H](C(C)(C)O)CC1 [alpha terpineol] | corresponding esters could be observed |
| CC(C)=CCC/C(C)=C/CO [geraniol] | corresponding esters could be observed |
| C=CC(C)(O)CCC=C(C)CCC=C(C)C (stereo not drawn) [nerolidol] | not observed to be converted |
| CC(C)=CCC[C@](C)(O)[C@@H]1CC=C(C)CC1 [(−)-alpha-bisabolol] | not observed to be converted |
| C[C@@H]1CC[C@H]2C(C)(C)[C@H]3C[C@@]12CC[C@@]3(C)O [cedrol] | not observed to be converted |
| C[C@H]1CC[C@@]2(O)C(C)(C)[C@@H]3CC[C@@]2(C)[C@H]1C3 [patchoulol] | not observed to be converted |
| CC1=CC(O)C2CC1C2(C)C (stereo not drawn) [verbenol] | corresponding esters could be observed |

Tested on: not listed separately
Test: Initial test of Lavandula angustifolia alcohol acyl transferases on linalool
Details: not given

| Molecule | linalool as a substrate |
| --- | --- |
| B4 | may not prefer linalool as a substrate |
| B5 | may not prefer linalool as a substrate |
